Test [1] concerns the target T1, ShGH76 (Salegentibacter sp. Hel_I_6, UniProt A0ACD6BAU6, D116N/D117N, form not given).
T1 construct: gene GH76A; synthetic gene in pET28a(+) (NheI/XhoI), N-terminal 6xHis tag, E. coli BL21(DE3); modelled residues Asp54-Glu391
Description: X-ray crystallography of the complex, […] Å. The class given is binding. Conditions: inactive double mutant ShGH76^Asn; co-crystallised at pH 4.6 with 140 mM calcium chloride; active site.

The target in test [2] is T2, ShGH76 (Salegentibacter sp. Hel_I_6, UniProt A0ACD6BAU6, D116A/D117A, form not given).
T2 construct: gene GH76A; synthetic gene in pET28a(+) (NheI/XhoI), N-terminal 6xHis tag, E. coli BL21(DE3); modelled residues Asp54-Glu391
Description: X-ray crystallography of the complex, […] Å. The following applies: inactive double mutant ShGH76^Ala; co-crystallised in 1.6 M tri-sodium citrate; active site. In kind it is binding.

Test [3] addresses T3, ShGH76 (Salegentibacter sp. Hel_I_6, UniProt A0ACD6BAU6).
T3 construct: gene GH76A; synthetic gene in pET28a(+) (NheI/XhoI), N-terminal 6xHis tag, E. coli BL21(DE3); modelled residues Asp54-Glu391
Description: HPAEC-PAD product analysis. In kind it is biochemical.

With `OC[C@H]1O[C@H](OC[C@H]2O[C@H](OC[C@H]3OC(O)[C@@H](O)[C@@H](O)[C@@H]3O)[C@@H](O)[C@@H](O)[C@@H]2O)[C@@H](O)[C@@H](O)[C@@H]1O` (stereo partly drawn) [Man3, α-1,6-mannotriose], in test [1], the “X-ray crystallography of the complex, 1.47 Å” value is “crystal structures of ShGH76^WT (apo-form), ShGH76^Asn (with Man3) and ShGH76^Ala (with Man4)”. With `OC[C@H]1O[C@H](OC[C@H]2O[C@H](OC[C@H]3O[C@H](OC[C@H]4OC(O)[C@@H](O)[C@@H](O)[C@@H]4O)[C@@H](O)[C@@H](O)[C@@H]3O)[C@@H](O)[C@@H](O)[C@@H]2O)[C@@H](O)[C@@H](O)[C@@H]1O` (stereo partly drawn) [Man4, α-1,6-mannotetrose], the “X-ray crystallography of the complex, 1.90 Å” value in test [2] is “crystal structures of ShGH76^WT (apo-form), ShGH76^Asn (with Man3) and ShGH76^Ala (with Man4)”. As to `OC[C@H]1O[C@H](OC[C@H]2O[C@H](OC[C@H]3O[C@H](OC[C@H]4O[C@H](OC[C@H]5O[C@H](OC[C@H]6O[C@H](OC[C@H]7OC(O)[C@@H](O)[C@@H](O)[C@@H]7O)[C@@H](O)[C@@H](O)[C@@H]6O)[C@@H](O)[C@@H](O)[C@@H]5O)[C@@H](O)[C@@H](O)[C@@H]4O)[C@@H](O)[C@@H](O)[C@@H]3O)[C@@H](O)[C@@H](O)[C@@H]2O)[C@@H](O)[C@@H](O)[C@@H]1O` (stereo partly drawn) [Man7, mannoheptose], in test [3], the HPAEC-PAD product analysis entry is on record as “As is exemplarily shown for Man7 (Fig. 5D), ShGH76^WT hydrolyzed α-1,6-mannooligosaccharides almost completely”.
